Consider 8 compounds from the supplement of paper PMC11061612.

What all share (test): Bliss excess, mean over the matrix (fraction); higher = more synergy
For assay [1], the system named is PA-TU-8988T (Pancreatic Carcinoma). In outline: (§1)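 Cell lines in DMEM/F12 or RPMI with 10% FBS were plated in 1536-well plates, held 24 hours at 37°C, 5% CO2, then given two-drug dose matrices for 72 hours (DMSO typically 0.2%). Viability was read by CellTiter-Glo 2.0 luminescence and scaled as inhibition from 0 (vehicle wells) to 1 (blank wells). Combination Emax is the second-highest inhibition in the matrix; Bliss excess is observed combination effect minus expected EA + EB − EA·EB, EA and EB being single-agent effects.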

Assay [2] relates to BHT-101 (Thyroid Gland Carcinoma). In outline: as §1
The test system of another assay is KALS-1 (Glioblastoma). In a few lines: as §1
The test system of assay [3] is MS-1 (Small Cell Lung Carcinoma). In a few lines:
as §1

For assay [4], the system named is C-33-A (Cervical Carcinoma). In outline: as §1
Assay [5] relates to NCI-H3118 (Head and Neck Carcinoma). In outline:
as §1

For assay [6], the system named is MM1S (Plasma Cell Myeloma). In outline:
as §1

The next assay relates to UACC-257 (Melanoma). In outline: as §1
The test system of assay [7] is NCI-H1876 (Small Cell Lung Carcinoma). In a few lines:
as §1

Assay [8] relates to MDA-MB-415 (Breast Carcinoma). In a few lines: as §1
For a further assay, the system named is ES6 (Ewing's Sarcoma). In outline:
as §1

The test system of assay [9] is CPC-N (Small Cell Lung Carcinoma). In a few lines: as §1
For assay [10], the system named is NCI-H1963 (Small Cell Lung Carcinoma). In outline: as §1
Assay [11] deals with LS-1034 (Colorectal Carcinoma). In outline:
as §1

The subject of assay [12] is SNU-C2B (Colorectal Carcinoma). In a few lines:
as §1

For assay [13], the system named is TUR (Acute Myeloid Leukemia). In outline: as §1
Assay [14] relates to OVCAR-3 (Ovarian Carcinoma). In a few lines: as §1
Assay [15] concerns MOLP-8 (Plasma Cell Myeloma). In a few lines:
as §1

Assay [16] deals with Raji (Burkitt's Lymphoma). In outline: as §1
Assay [17] deals with T84 (Colorectal Carcinoma). In a few lines: as §1

Turning to `Cc1c2c(nn1C)CSCc1cc(n(C)n1)CSc1cc(c3ccccc3c1)OCCCc1c(C(=O)O)n(C)c3c-2c(Cl)ccc13` [AZD5991] + C[C@@H](Nc1cc(F)cc(F)c1)c1cc(C(=O)N(C)C)cc2c(=O)cc(N3CCOCC3)oc12 [AZD8186] (first compound max 1 µM, 7x7, partner max 3 µM), the Bliss excess in assay [1] is 0.0295; in assay [2], 0.0094; in the assay with KALS-1 (Glioblastoma) it was 0.012; in assay [3] it was -0.0481; in assay [4], -0.0463; in assay [5], -0.0161. Besides, the Bliss excess in [6] was 0.0187; with UACC-257 (Melanoma), -0.0234; in assay [7], 0.0156; in assay [8] it was 0.0416; in the assay with ES6 (Ewing's Sarcoma), 0.0045; in [9], -0.0085. The Bliss excess was 0.0155 in [10]; -0.0142 in assay [11]; -0.0337 in assay [12]; 0.0047 in [13]; 0.0423 in [14]; 0.0039 in assay [15]. The Bliss excess in assay [16] was 0.0164.
With `CCc1c2c(nc3ccc(O)cc13)-c1cc3c(c(=O)n1C2)COC(=O)[C@]3(O)CC` [SN-38] + O=C(c1cc(Cc2n[nH]c(=O)c3ccccc23)ccc1F)N1CCN(C(=O)C2CC2)CC1 [Olaparib] (first compound max 0.3 µM, 7x7, partner max 10 µM), the Bliss excess in assay [1] amounted to 0.023; with KALS-1 (Glioblastoma), 0.069; in assay [3], 0.0551; in assay [4], 0.0577; in assay [5] it was 0.106; in the assay with UACC-257 (Melanoma), 0.0213. The Bliss excess in [17] is -0.0279; in assay [8], 0.026; with ES6 (Ewing's Sarcoma), 0.13; in [9] it was 0.105; in [10], 0.099; in assay [11] it was 0.0494. Also, the Bliss excess in [12] came out at 0.0556; in assay [13], 0.0429; in [14] it was 0.0986; in assay [15], 0.0336; in assay [16] it was 0.0342.
On to `Cc1c2c(nn1C)CSCc1cc(n(C)n1)CSc1cc(c3ccccc3c1)OCCCc1c(C(=O)O)n(C)c3c-2c(Cl)ccc13` [AZD5991] + CCN(CCO)CCCOc1ccc2c(Nc3cc(CC(=O)Nc4cccc(F)c4)[nH]n3)ncnc2c1 [AZD2811] (first compound max 1 µM, 7x7, partner max 1 µM), for which the Bliss excess is 0.0689 in assay [1]; -0.0507 in [2]; -0.0294 with KALS-1 (Glioblastoma); 0.0123 in assay [3]; -0.028 in assay [4]; 0.0796 in [5]. Also, the Bliss excess in assay [6] is 0.134; in assay [17], 0.0441; in assay [7], 0.058; in assay [8], -0.108; in the assay on ES6 (Ewing's Sarcoma), 0.0337; in assay [9] it was 0.0311. For the same compound, the Bliss excess is -0.0088 in assay [10]; -0.0173 in assay [11]; 0.0057 in assay [12]; 0.121 in [13]; 0.0647 in assay [14]; 0.0543 in assay [15]. The Bliss excess in [16] is 0.0766.
With `CN(C)CCCOc1ccc(-c2ccc3ncc4c(c3c2)n(C2CCOCC2)c(=O)n4C)cn1` [AZD0156] + O=C(c1cc(Cc2n[nH]c(=O)c3ccccc23)ccc1F)N1CCN(C(=O)C2CC2)CC1 [Olaparib] (first compound max 3 µM, partner max 3 µM), the Bliss excess in assay [1] is 0.0235; in [2], 0.0766; in the assay on KALS-1 (Glioblastoma), -0.0235; in assay [3], 0.142; in [4] it was 0.0868; in [5], 0.0479. Further, the Bliss excess was 0.0231 in assay [6]; -0.0055 in the assay with UACC-257 (Melanoma); -0.0535 in assay [17]; 0.103 in assay [7]; 0.0017 in [8]; -0.005 in the assay with ES6 (Ewing's Sarcoma). The Bliss excess is 0.0237 in assay [9]; 0.0657 in assay [11]; 0.0054 in assay [12]; 0.0469 in assay [13]; -0.0371 in [14]; 0.0151 in [15]. In addition, in [16], the Bliss excess was 0.156.
For the compound `CC(=O)c1c(C)c2cnc(Nc3ccc(N4CCNCC4)cn3)nc2n(C2CCCC2)c1=O` [Palbociclib] + CN(CC[C@H](CSC1=CC=CC=C1)NC2=C(C=C(C=C2)S(=O)(=O)NC(=O)C3=CC=C(C=C3)N4CCC(CC4)[C@H](C5=CC=CC=C5C6=CC=C(C=C6)Cl)O)S(=O)(=O)C(F)(F)F)CCO [AZD4320] (first compound max 10 µM, 7x7, partner max 1 µM), the Bliss excess in assay [1] was -0.0213; in assay [2], 0.0064; in [6] it was -0.0634; in the assay on UACC-257 (Melanoma), -0.0668; in assay [7] it was -0.0286; in assay [10], 0.0164. Moreover, the Bliss excess is -0.0867 in assay [12]; -0.0635 in assay [13]; -0.0429 in [14]; 0.0145 in [15]; -0.0122 in assay [16].
As to `COc1nnc2ccc(N3CCC(c4ccc(OCCN5CCN(C)C(=O)[C@H]5C)cc4)CC3)nn12` [AZD5153] + CN(CC[C@H](CSC1=CC=CC=C1)NC2=C(C=C(C=C2)S(=O)(=O)NC(=O)C3=CC=C(C=C3)N4CCC(CC4)[C@H](C5=CC=CC=C5C6=CC=C(C=C6)Cl)O)S(=O)(=O)C(F)(F)F)CCO [AZD4320] (first compound max 1 µM, 7x7, partner max 1 µM), the Bliss excess was determined as 0.048 in assay [1]; 0.0367 in assay [2]; 0.0694 in assay [6]; 0.0654 with UACC-257 (Melanoma); 0.134 in assay [7]; 0.0696 in [10]. The Bliss excess in assay [12] worked out at 0.0215; in assay [13], 0.0533; in assay [14], 0.0914; in [15], 0.0239; in assay [16] it was 0.0146.
With `C=CCn1c(=O)c2cnc(Nc3ccc(N4CCN(C)CC4)cc3)nc2n1-c1cccc(C(C)(C)O)n1` [AZD1775] + C1CN(CCC1(C(=O)N[C@@H](CCO)C2=CC=C(C=C2)Cl)N)C3=NC=NC4=C3C=CN4 [Capivasertib] (first compound max 3 µM, partner max 3 µM), the Bliss excess in [1] was -0.0264; in assay [2], 0.0304; in the assay with KALS-1 (Glioblastoma), -0.0806; in [3], 0.0208; in assay [4], -0.0323; in [5], -0.0253. Besides, the Bliss excess in assay [6] was 0.0171; in the assay on UACC-257 (Melanoma), -0.0383; in assay [17], -0.0807; in assay [7], -0.0304; in [8], 0.0043; in assay [9], -0.0415. For the same compound, the Bliss excess was -0.0125 in assay [11]; -0.0573 in assay [12]; 0.0434 in assay [13]; -0.025 in assay [14]; 0.0286 in [15]; 0.0011 in [16].
On to `C[C@@H](c1ccc2nccn2c1)n1nnc2ncc(-c3cnn(C)c3)nc21` [Savolitinib] + CN(CC[C@H](CSC1=CC=CC=C1)NC2=C(C=C(C=C2)S(=O)(=O)NC(=O)C3=CC=C(C=C3)N4CCC(CC4)[C@H](C5=CC=CC=C5C6=CC=C(C=C6)Cl)O)S(=O)(=O)C(F)(F)F)CCO [AZD4320] (first compound max 1 µM, 7x7, partner max 1 µM), for which the Bliss excess in assay [1] was -0.0581; in assay [2] it was -0.0327; in [6] it was -0.034; in the assay with UACC-257 (Melanoma) it was -0.0529; in [7] it was -0.0256; in [10], 0.0022. The Bliss excess in assay [12] is -0.101; in [13], -0.0188; in assay [14], -0.0388; in assay [15], 0.0014; in assay [16], -0.0168.
